Experimental data as given in ChEMBL document CHEMBL1122477, “Neuroleptic activity and dopamine-uptake inhibition in 1-piperazino-3-phenylindans” (J Med Chem, 1983).
pIC50: −log10 of the molar value.

How the values were obtained:
[1] = species: Mus musculus
Description: (§1) Compound (administered intraperitoneally) was assessed for neuroleptic activity to antagonize methyl phenidate induced stereotypes in mice

[2] = tested on: Rattus norvegicus; assay: Tested orally in rats for antagonism of stereotypies induced by amphetamine; type: functional; conditions: Rattus norvegicus, po; read-out: ED50
[3] = species: Rattus norvegicus
Description: (§2) Ability to induce catalepsy in rats perorally, an effect normally related to clinical extrapyramidal side effects

[4] = species: Rattus norvegicus; assay: animal or person; conditions: po
Description: as §2

[5] = species: Mus musculus; assay: Assessed for thymoleptic activity by its ability to antagonize tetrabenazine ptosis in mice; type: functional
[6] = target: Norepinephrine transporter (Rattus norvegicus, UniProt Q9WTR4)
Norepinephrine transporter, sequence (Q9WTR4 whole entry): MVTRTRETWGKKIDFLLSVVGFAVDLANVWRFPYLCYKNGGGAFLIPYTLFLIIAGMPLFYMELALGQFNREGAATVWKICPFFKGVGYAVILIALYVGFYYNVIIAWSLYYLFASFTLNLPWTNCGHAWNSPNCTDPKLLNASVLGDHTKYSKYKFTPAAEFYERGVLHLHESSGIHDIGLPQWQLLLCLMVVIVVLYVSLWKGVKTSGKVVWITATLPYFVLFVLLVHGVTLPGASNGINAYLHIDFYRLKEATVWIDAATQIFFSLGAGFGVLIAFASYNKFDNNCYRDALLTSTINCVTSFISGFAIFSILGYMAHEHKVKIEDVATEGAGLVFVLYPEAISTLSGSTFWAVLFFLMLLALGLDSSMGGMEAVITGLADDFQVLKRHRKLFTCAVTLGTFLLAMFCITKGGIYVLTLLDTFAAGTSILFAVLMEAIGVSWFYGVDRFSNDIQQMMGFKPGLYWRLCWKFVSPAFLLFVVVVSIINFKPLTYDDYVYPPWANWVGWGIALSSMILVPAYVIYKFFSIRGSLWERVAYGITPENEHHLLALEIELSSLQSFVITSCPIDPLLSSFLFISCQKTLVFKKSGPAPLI
Description: Effect on synaptosomal uptake inhibition of Noradrenaline (NA)

[7] = target: Dopamine receptor
Description: Effect on synaptosomal uptake inhibition of Dopamine receptor

[8] = target: T1, Sodium-dependent serotonin transporter (Rattus norvegicus, UniProt P31652); assay: Effect on synaptosomal uptake inhibition of 5-hydroxytryptamine (5-HT); type: functional
T1 sequence (P31652 whole entry): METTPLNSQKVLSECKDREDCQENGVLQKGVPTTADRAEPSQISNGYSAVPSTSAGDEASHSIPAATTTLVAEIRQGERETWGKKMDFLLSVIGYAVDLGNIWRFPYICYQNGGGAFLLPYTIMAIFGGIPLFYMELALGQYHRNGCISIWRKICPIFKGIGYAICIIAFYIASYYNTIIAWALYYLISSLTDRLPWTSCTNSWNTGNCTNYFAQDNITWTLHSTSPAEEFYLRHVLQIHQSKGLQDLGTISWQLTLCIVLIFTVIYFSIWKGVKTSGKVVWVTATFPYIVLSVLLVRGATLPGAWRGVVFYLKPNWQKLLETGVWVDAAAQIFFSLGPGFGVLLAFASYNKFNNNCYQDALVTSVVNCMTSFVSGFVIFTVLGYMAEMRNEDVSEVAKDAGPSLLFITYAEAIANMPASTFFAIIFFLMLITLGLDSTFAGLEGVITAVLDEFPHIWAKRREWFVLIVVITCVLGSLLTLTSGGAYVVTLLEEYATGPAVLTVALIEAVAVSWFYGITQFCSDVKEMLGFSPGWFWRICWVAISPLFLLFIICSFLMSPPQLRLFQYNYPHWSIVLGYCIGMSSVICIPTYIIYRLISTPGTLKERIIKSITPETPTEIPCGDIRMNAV

[9] = species: Mus musculus; assay: animal or person; conditions: ip
Description: as §1

[10] = target: T1, Sodium-dependent serotonin transporter
[11] = target: Sodium-dependent dopamine transporter (Rattus norvegicus, UniProt P23977)
Sodium-dependent dopamine transporter, sequence (P23977 whole entry): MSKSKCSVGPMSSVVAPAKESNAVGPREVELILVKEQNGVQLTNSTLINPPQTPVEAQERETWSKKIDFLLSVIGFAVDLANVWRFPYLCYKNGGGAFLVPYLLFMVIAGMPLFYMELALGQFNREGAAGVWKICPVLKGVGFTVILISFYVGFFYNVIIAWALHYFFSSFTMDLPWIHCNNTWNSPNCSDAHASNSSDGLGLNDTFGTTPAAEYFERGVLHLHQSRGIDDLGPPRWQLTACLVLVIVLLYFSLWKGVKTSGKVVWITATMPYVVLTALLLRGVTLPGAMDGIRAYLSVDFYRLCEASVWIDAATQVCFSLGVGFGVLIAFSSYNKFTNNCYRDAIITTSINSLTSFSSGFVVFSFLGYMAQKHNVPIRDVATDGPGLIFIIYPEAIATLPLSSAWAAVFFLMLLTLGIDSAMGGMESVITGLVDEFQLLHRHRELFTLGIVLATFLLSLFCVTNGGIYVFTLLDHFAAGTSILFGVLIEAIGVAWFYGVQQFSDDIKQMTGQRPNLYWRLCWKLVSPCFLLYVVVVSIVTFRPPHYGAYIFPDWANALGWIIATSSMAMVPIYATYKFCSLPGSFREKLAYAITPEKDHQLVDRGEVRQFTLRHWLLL
Description: Effect on synaptosomal uptake inhibition of Dopamine transporter

Cl.Cl.OCC(O)CN1CCN(C2CC(c3ccc(F)cc3)c3ccc(F)cc32)CC1 (trans isomer)
ED50 [1]: 2.9 µM/kg
ED50 [2]: 33 µmol/kg
ED50 [3]: >280 µM/kg

Cl.Cl.OCCCN1CCN(C2CC(c3ccc(F)cc3)c3ccc(F)cc32)CC1 (stereo not given)
ED50 [1]: 3.7 µM/kg
ED50 [2]: 5.2 µmol/kg
ED50 [4]: 8.3 µmol/kg

CN1CCN(C2CC(c3ccc(Cl)c(Cl)c3)c3ccccc32)CC1.Cl.Cl (stereo in doubt; 97)
ED50 [5]: 100 µM/kg
pIC50 [6]: 8.11
IC50 [7]: 4.4 nM
pIC50 [8]: 6.20

OCCN1CCN([C@@H]2C[C@@H](c3ccc(Cl)cc3)c3ccc(Cl)cc32)CC1 (relative stereo)
ED50 [9]: > 86 µmol/kg
ED50 [4]: > 86 µmol/kg

CN1CCN(C2CC(c3ccc(Cl)c(Cl)c3)c3ccccc32)CC1.Cl.Cl (trans isomer)
ED50 [5]: 48 µM/kg
pIC50 [6]: 7.49
IC50 [7]: 11 nM
pIC50 [8]: 6.70

OCCCN1CCN(C2CC(c3ccc(Cl)c(Cl)c3)c3ccccc32)CC1 (stereo not given)
ED50 [5]: 12 µM/kg
pIC50 [6]: 8.17
IC50 [7]: 15 nM
pIC50 [8]: 6.92

OCCN1CCN(C2CC(c3ccc(F)cc3)c3ccc(Cl)cc32)CC1 (trans isomer)
ED50 [9]: 2.8 µmol/kg
ED50 [2]: 3.5 µmol/kg
ED50 [4]: 3.3 µmol/kg

Cl.Cl.OCCN1CCN(C2CC(c3ccc(Cl)cc3Cl)c3ccccc32)CC1 (cis isomer)
ED50 [5]: >94 µM/kg
IC50 [7]: 2000 nM

Fc1ccc(C2CC(N3CCN(CCc4ccccc4)CC3)c3cc(F)ccc32)cc1 (cis isomer)
ED50 [1]: >95 µM/kg

OCCN1CCN(C2CC(c3ccc(F)cc3)c3ccccc32)CC1 (stereo not given)
ED50 [9]: > 118 µmol/kg

CC(O)CN1CCN(C2CC(c3ccc(F)cc3)c3ccc(F)cc32)CC1.Cl.Cl (stereo in doubt; 71)
ED50 [1]: 2.8 µM/kg
ED50 [2]: 12 µmol/kg
ED50 [4]: 37 µmol/kg

N#CCCN1CCN(C2CC(c3ccc(F)cc3)c3ccc(F)cc32)CC1 (trans isomer)
ED50 [9]: 73 µmol/kg
ED50 [2]: > 91 µmol/kg

CN1CCN(C2CCC(c3ccc(F)cc3)c3ccc(F)cc32)CC1 (trans isomer)
ED50 [1]: >117 µM/kg

OCCCN1CCN(C2CC(c3ccc(F)cc3)c3ccc(F)cc32)CC1 (cis isomer)
ED50 [1]: >90 µM/kg

CSc1ccc2c(c1)C(N1CCN(CCO)CC1)CC2c1ccc(F)cc1 (stereo not given)
ED50 [9]: 2.8 µmol/kg
ED50 [2]: 20 µmol/kg
ED50 [4]: 14 µmol/kg

CS(=O)(=O)c1ccc2c(c1)C(N1CCN(CCO)CC1)CC2c1ccc(F)cc1 (trans isomer)
ED50 [9]: 20 µmol/kg

CN1Cc2c(N)cccc2C(c2ccccc2)C1 (stereo not given) [NOMIFENSINE]
pIC50 [6]: 8.18
IC50 [7]: 48 nM

CN1CCN(C2CCC(c3ccc(F)cc3)c3ccc(F)cc32)CC1 (stereo in doubt; 3b)
ED50 [9]: > 96 µmol/kg

OCC(O)CN1CCN(C2CC(c3ccc(F)cc3)c3ccc(F)cc32)CC1 (stereo not given)
ED50 [1]: >51 µM/kg
ED50 [3]: >102 µM/kg

CCN1CCN(C2CC(c3ccc(F)cc3)c3ccc(F)cc32)CC1.Cl.Cl (trans isomer)
ED50 [1]: 7 µM/kg
ED50 [2]: 14 µmol/kg
ED50 [4]: 53 µmol/kg

Fc1ccc(C2CC(N3CCN(C/C=C/c4ccccc4)CC3)c3cc(F)ccc32)cc1 (stereo in doubt; 63)
ED50 [9]: 57 µmol/kg
pIC50 [10]: 6.80
pIC50 [11]: 6.47

CC(C)c1ccc2c(c1)C(N1CCN(CCO)CC1)CC2c1ccc(F)cc1 (trans isomer)
ED50 [9]: 9.6 µmol/kg
ED50 [2]: 26 µmol/kg
ED50 [4]: 17 µmol/kg

NC(=O)CN1CCN(C2CC(c3ccc(F)cc3)c3ccc(F)cc32)CC1 (trans isomer)
ED50 [9]: > 88 µmol/kg

Cl.Cl.Fc1ccc(C2CC(N3CCN(C/C=C/c4ccccc4)CC3)c3cc(F)ccc32)cc1 (stereo in doubt; 64)
ED50 [1]: >79 µM/kg
pIC50 [10]: 6.40
pIC50 [11]: 6.68

CC(C)(O)CN1CCN(C2CC(c3ccc(F)cc3)c3ccc(F)cc32)CC1 (trans isomer)
ED50 [9]: > 87 µmol/kg
ED50 [2]: 30 µmol/kg

Cl.Cl.Clc1ccc(C2CC(N3CCN(C/C=C/c4ccccc4)CC3)c3ccccc32)cc1Cl (cis isomer)
ED50 [5]: >73 µM/kg
IC50 [7]: 35 nM

CN1CCN(C2CC(c3ccc(Cl)c(Cl)c3)c3ccccc32)CC1.Cl.Cl (single isomer, unassigned; 99)
ED50 [5]: 69 µM/kg
pIC50 [6]: 8.60
IC50 [7]: 2.3 nM
pIC50 [8]: 6.28

CN(C)C[C@H]1C2CCC(CC2)[C@H]1c1ccc(Cl)c(Cl)c1 (relative stereo)
pIC50 [8]: 7.89
